Experiment [1] has as its target T1, mouse odorant receptors (ORs) (Mus musculus, UniProt P23275).
T1 construct: OR open reading frames were amplified from genomic DNA; expressed in transfected cells; host or cells: Hana3A cells, co-transfected with RTP1S, CRE-luciferase and pRL-SV40
T1 sequence (P23275 1-312): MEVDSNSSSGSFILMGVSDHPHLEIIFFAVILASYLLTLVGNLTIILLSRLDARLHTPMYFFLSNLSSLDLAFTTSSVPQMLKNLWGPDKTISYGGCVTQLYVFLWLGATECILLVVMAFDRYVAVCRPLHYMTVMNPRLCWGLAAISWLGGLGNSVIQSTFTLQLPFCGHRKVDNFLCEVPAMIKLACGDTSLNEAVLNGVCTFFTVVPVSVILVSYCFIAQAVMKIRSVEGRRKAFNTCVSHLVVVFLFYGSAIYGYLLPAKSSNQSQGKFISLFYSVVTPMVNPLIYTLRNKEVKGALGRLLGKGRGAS
The experiment in a line: CRE-luciferase assay of odorant receptor activation (Dual-Glo, Hana3A cells, RTP1S), dose-response EC50. Format: cell-based. As to conditions: receptor MOR256-17; read-out: log EC50 of odorant at MOR256-17 (0 = no response) (converted).

For experiment [2], the target named is T2, mouse odorant receptors (ORs) (Mus musculus, UniProt Q8VG42).
T2 construct: OR open reading frames were amplified from genomic DNA; expressed in transfected cells; host or cells: Hana3A cells, co-transfected with RTP1S, CRE-luciferase and pRL-SV40
T2 sequence (Q8VG42 1-310): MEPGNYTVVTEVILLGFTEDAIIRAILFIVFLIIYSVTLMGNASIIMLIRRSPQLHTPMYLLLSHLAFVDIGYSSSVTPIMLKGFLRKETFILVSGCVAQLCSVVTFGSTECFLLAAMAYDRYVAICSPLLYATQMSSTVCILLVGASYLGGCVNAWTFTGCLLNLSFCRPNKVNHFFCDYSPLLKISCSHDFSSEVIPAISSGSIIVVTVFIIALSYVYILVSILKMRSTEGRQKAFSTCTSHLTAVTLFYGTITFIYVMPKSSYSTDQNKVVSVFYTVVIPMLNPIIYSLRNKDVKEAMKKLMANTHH
The experiment is described as above. It counts as cell-based. As to conditions: receptor MOR204-6; for log EC50, MOR204-6: 0 = no response.

Experimental findings from US20100248390A1, “COMPOSITIONS AND METHODS FOR IDENTIFYING LIGANDS OF ODORANT RECEPTORS” (DUKE UNIVERSITY, priority 2009, published 2010) are described below.

As usually defined, the EC50 is the concentration that produces a half-maximal response. For `CCCCCCCCC(=O)O` [Nonanoic acid], the EC50 in experiment [1] was 20.2 µM.

Turning to `CCCCCCCC(=O)O` [Octanoic Acid], the EC50 in experiment [1] is 38.9 µM. Still for that read-out and setting: the result for `CCCCCCCCS` [Octanethiol] reads 40.9 µM.

Turning to `C=C(C)C1CC=C(C)C(=O)C1` (single isomer, unassigned; (-)) [(−)-Carvone], the “log EC50, MOR204-6” value in experiment [2] is recorded as −3.625.

As for `O=c1ccc2ccccc2o1` [Coumarin], in experiment [2] (read-out: log EC50 (Table 4 value), MOR204-6 (converted)), the EC50 is 7.96 µM. For the compound `C=C(C)[C@H]1CC=C(C)C(=O)C1` [(+)-Carvone], the “log EC50, MOR204-6” value in experiment [2] is −3.85.
